What was measured:
AMBEL (Ragweed, Common) = assay: Postemergence herbicidal evaluation; format: in vivo, Ambrosia artemisifolia; settings: for AMBEL herbicidal rating: postemergence
How it was run: (§1)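 ~2-wk seedlings; postemergence spray, 40 psi; vehicle 1:1 acetone:water + 0.5% Tween 20; rate ≈0.0156–0.500 kg/ha; greenhouse hold; scored 4–5 wk after treatment, 0–9 scale vs control; repeat tests averaged.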

ABUTH (Velvetleaf) = assay: Preemergence herbicidal evaluation; format: in vivo, Abutilon theophrasti; settings: rated 4-5 weeks after treatment
How it was run: (§2)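 Seeds were mixed with potting soil and planted on about one inch of soil, then sprayed with test compound in aqueous acetone at about 0.0156 to 0.500 kg per hectare. Plants grew under standard greenhouse care and were visually rated 0-9 against untreated controls 4-5 weeks post-treatment.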

[1] = test system: TRZAWR (Wheat, Winter, cv Riband); assay: Preemergence herbicidal evaluation; format: in vivo, Triticum aestivum; settings: rated 4-5 weeks after treatment
How it was run: as §2

CASOB (Sicklepod) [2] = assay: Preemergence herbicidal evaluation; format: in vivo, Cassia obtusifolia; settings: rated 4-5 weeks after treatment
How it was run: as §2

[3] = test system: SAGPY (Arrowhead (Pygmaea)); assay: Preemergence weed control under flooded paddy conditions; format: in vivo, Sagittaria pygmaea; settings: rated 3-4 weeks after treatment
How it was run: (§3)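 Ratings on a 0-9 visual scale cover stand, vigor, malformation, size, chlorosis and overall appearance relative to a control, taken three to four weeks post-treatment. Application was into flood water over freshly sown silt loam at roughly 0.0313 to 0.500 kg/ha.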

[4] = test system: GLXMAW (Soybean, Williams); assay: Preemergence herbicidal evaluation; format: in vivo, Glycine max, (L.) Merr. cv Williams; settings: rated 4-5 weeks after treatment
How it was run: as §2

CASOB (Sicklepod) [5] = assay: Postemergence herbicidal evaluation; format: in vivo, Cassia obtusifolia; settings: for CASOB herbicidal rating: postemergence
How it was run: as §1

GALAP (Galium) = assay: Postemergence herbicidal evaluation; format: in vivo, Galium aparine; settings: for GALAP herbicidal rating: postemergence
How it was run: as §1

CYPIR (Rice Flatsedge) = assay: Postemergence weed control under flooded paddy conditions; format: in vivo, Cyperus iria; settings: postemergence weeds, 3-4 weeks after treatment
How it was run: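 Weeds 3 to 5 cm tall and rice seedlings at the 1.5 to 2.5 leaf stage were flooded, with water held 1.5 to 3 cm above the soil. Compounds in 50/50 v/v aqueous/acetone went into the flood water at about 0.0313 to 0.500 kg/ha. Visual 0-9 ratings versus control were made 3 to 4 weeks later.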

[6] = test system: IPOHE (Morningglory, Ivyleaf); assay: Postemergence herbicidal evaluation; format: in vivo, Ipomoea hederacea; settings: for IPOHE herbicidal rating: postemergence
How it was run: as §1

ZEAMX (Corn, Field) = assay: Preemergence herbicidal evaluation; format: in vivo, Zea mays; settings: rated 4-5 weeks after treatment
How it was run: as §2

[7] = test system: IPOHE (Morningglory, Ivyleaf); assay: Preemergence herbicidal evaluation; format: in vivo, Ipomoea hederacea; settings: rated 4-5 weeks after treatment
How it was run: as §2

MOOVA (Monochoria) = assay: Preemergence weed control under flooded paddy conditions; format: in vivo, Monochoria vaginalis; settings: rated 3-4 weeks after treatment
How it was run: as §3

ECHCG (Barnyardgrass) = assay: Preemergence herbicidal evaluation; format: in vivo, Echinochloa crus-galli; settings: rated 4-5 weeks after treatment
How it was run: as §2

Cn1c(C(F)(F)F)cc(=O)n(-c2cc(N=C3SCC(=O)N3[C@@H](Cc3ccccc3)C(=O)O)c(Cl)cc2F)c1=O [Compound 53, α-Benzyl-2-{{2-chloro-5-[3,6-dihydro-3-methyl-2,6-dioxo-4-(trifluoromethyl)-1(2H)-pyrimidinyl]-4-fluorophenyl}imino}-4-oxo-3-thiazolidineacetic acid, L-]
0.0: Preemergence herbicidal rating TRZAWR ([1]; rate 0.0313 kg/ha) | Preemergence herbicidal rating CASOB (CASOB (Sicklepod) [2]; rate 0.0313 kg/ha) | Preemergence herbicidal rating CASOB (CASOB (Sicklepod) [2]; rate 0.0625 kg/ha) | Herbicidal rating SAGPY ([3]; 0.0313 kg/ha) | Herbicidal rating SAGPY ([3]; 0.0625 kg/ha) | Herbicidal rating SAGPY ([3]; 0.1250 kg/ha) | Herbicidal rating SAGPY ([3]; 0.2500 kg/ha) | Preemergence herbicidal rating GLXMAW ([4]; rate 0.0313 kg/ha) | Preemergence herbicidal rating GLXMAW ([4]; rate 0.0625 kg/ha) | Preemergence herbicidal rating IPOHE ([7]; rate 0.0313 kg/ha)
1.0: Preemergence herbicidal rating TRZAWR ([1]; rate 0.0625 kg/ha) | Preemergence herbicidal rating CASOB (CASOB (Sicklepod) [2]; rate 0.1250 kg/ha) | Preemergence herbicidal rating CASOB (CASOB (Sicklepod) [2]; rate 0.2500 kg/ha) | Preemergence herbicidal rating ZEAMX (ZEAMX (Corn, Field); rate 0.0313 kg/ha) | Preemergence herbicidal rating ZEAMX (ZEAMX (Corn, Field); rate 0.0625 kg/ha) | Preemergence herbicidal rating ECHCG (ECHCG (Barnyardgrass); rate 0.0313 kg/ha)
6.0: Preemergence herbicidal rating ZEAMX (ZEAMX (Corn, Field); rate 0.2500 kg/ha)
3.0: Postemergence herbicidal rating GALAP (GALAP (Galium); Rate 0.0158 kg/ha)
9.0: Postemergence herbicidal rating AMBEL (AMBEL (Ragweed, Common); Rate 0.0158 kg/ha) | Postemergence herbicidal rating AMBEL (AMBEL (Ragweed, Common); Rate 0.0315 kg/ha) | Postemergence herbicidal rating AMBEL (AMBEL (Ragweed, Common); Rate 0.0630 kg/ha) | Preemergence herbicidal rating ABUTH (ABUTH (Velvetleaf); rate 0.0625 kg/ha) | Preemergence herbicidal rating ABUTH (ABUTH (Velvetleaf); rate 0.1250 kg/ha) | Preemergence herbicidal rating ABUTH (ABUTH (Velvetleaf); rate 0.2500 kg/ha) | Postemergence herbicidal rating CASOB (CASOB (Sicklepod) [5]; Rate 0.0630 kg/ha) | Postemergence herbicidal rating GALAP (GALAP (Galium); Rate 0.0630 kg/ha) | Herbicidal rating CYPIR (CYPIR (Rice Flatsedge); rate 0.1250 kg/ha) | Herbicidal rating CYPIR (CYPIR (Rice Flatsedge); rate 0.2500 kg/ha) | Postemergence herbicidal rating IPOHE ([6]; Rate 0.0158 kg/ha) | Postemergence herbicidal rating IPOHE ([6]; Rate 0.0315 kg/ha) | Postemergence herbicidal rating IPOHE ([6]; Rate 0.0630 kg/ha) | Preemergence herbicidal rating IPOHE ([7]; rate 0.0625 kg/ha) | Preemergence herbicidal rating IPOHE ([7]; rate 0.1250 kg/ha) | Preemergence herbicidal rating IPOHE ([7]; rate 0.2500 kg/ha) | Herbicidal rating MOOVA (MOOVA (Monochoria); 0.1250 kg/ha) | Herbicidal rating MOOVA (MOOVA (Monochoria); 0.2500 kg/ha) | Preemergence herbicidal rating ECHCG (ECHCG (Barnyardgrass); rate 0.2500 kg/ha)
5.0: Preemergence herbicidal rating ZEAMX (ZEAMX (Corn, Field); rate 0.1250 kg/ha)
4.0: Preemergence herbicidal rating GLXMAW ([4]; rate 0.2500 kg/ha) | Postemergence herbicidal rating CASOB (CASOB (Sicklepod) [5]; Rate 0.0158 kg/ha) | Preemergence herbicidal rating ECHCG (ECHCG (Barnyardgrass); rate 0.0625 kg/ha)
7.0: Preemergence herbicidal rating ABUTH (ABUTH (Velvetleaf); rate 0.0313 kg/ha) | Preemergence herbicidal rating TRZAWR ([1]; rate 0.2500 kg/ha) | Postemergence herbicidal rating CASOB (CASOB (Sicklepod) [5]; Rate 0.0315 kg/ha) | Postemergence herbicidal rating GALAP (GALAP (Galium); Rate 0.0315 kg/ha) | Preemergence herbicidal rating ECHCG (ECHCG (Barnyardgrass); rate 0.1250 kg/ha)
2.0: Preemergence herbicidal rating TRZAWR ([1]; rate 0.1250 kg/ha) | Preemergence herbicidal rating GLXMAW ([4]; rate 0.1250 kg/ha) | Herbicidal rating CYPIR (CYPIR (Rice Flatsedge); rate 0.0313 kg/ha) | Herbicidal rating CYPIR (CYPIR (Rice Flatsedge); rate 0.0625 kg/ha) | Herbicidal rating MOOVA (MOOVA (Monochoria); 0.0313 kg/ha) | Herbicidal rating MOOVA (MOOVA (Monochoria); 0.0625 kg/ha)

CC1SC(=Nc2cc(-n3c(=O)cc(C(F)(F)F)n(C)c3=O)c(F)cc2Cl)N(C)C1=O (stereo not shown) [Compound 9]
8.0: CASOB preemergence herbicidal rating (CASOB (Sicklepod) [2]; rate 0.2500 kg/ha)
1.5: GALAP herbicidal rating (GALAP (Galium); rate 0.0156 kg/ha)
4.0: TRZAWR preemergence herbicidal rating ([1]; rate 0.0156 kg/ha) | GLXMAW preemergence herbicidal rating ([4]; rate 0.0156 kg/ha) | Herbicidal rating CYPIR (CYPIR (Rice Flatsedge); rate 0.1250 kg/ha) | IPOHE herbicidal rating ([6]; rate 0.0156 kg/ha)
2.0: AMBEL herbicidal rating (AMBEL (Ragweed, Common); rate 0.0156 kg/ha) | Herbicidal rating SAGPY ([3]; 0.2500 kg/ha) | CASOB herbicidal rating (CASOB (Sicklepod) [5]; rate 0.0625 kg/ha) | Herbicidal rating CYPIR (CYPIR (Rice Flatsedge); rate 0.0625 kg/ha)
2.5: GALAP herbicidal rating (GALAP (Galium); rate 0.0313 kg/ha)
9.0: ABUTH preemergence herbicidal rating (ABUTH (Velvetleaf); rate 0.0156 kg/ha) | ABUTH preemergence herbicidal rating (ABUTH (Velvetleaf); rate 0.0313 kg/ha) | ABUTH preemergence herbicidal rating (ABUTH (Velvetleaf); rate 0.0625 kg/ha) | ABUTH preemergence herbicidal rating (ABUTH (Velvetleaf); rate 0.1250 kg/ha) | ABUTH preemergence herbicidal rating (ABUTH (Velvetleaf); rate 0.2500 kg/ha) | TRZAWR preemergence herbicidal rating ([1]; rate 0.1250 kg/ha) | TRZAWR preemergence herbicidal rating ([1]; rate 0.2500 kg/ha) | GLXMAW preemergence herbicidal rating ([4]; rate 0.2500 kg/ha) | IPOHE herbicidal rating ([6]; rate 0.0625 kg/ha) | IPOHE herbicidal rating ([6]; rate 0.1250 kg/ha) | IPOHE preemergence herbicidal rating ([7]; rate 0.1250 kg/ha) | IPOHE preemergence herbicidal rating ([7]; rate 0.2500 kg/ha) | Herbicidal rating MOOVA (MOOVA (Monochoria); 0.0313 kg/ha) | Herbicidal rating MOOVA (MOOVA (Monochoria); 0.0625 kg/ha) | Herbicidal rating MOOVA (MOOVA (Monochoria); 0.1250 kg/ha) | Herbicidal rating MOOVA (MOOVA (Monochoria); 0.2500 kg/ha) | ECHCG preemergence herbicidal rating (ECHCG (Barnyardgrass); rate 0.1250 kg/ha) | ECHCG preemergence herbicidal rating (ECHCG (Barnyardgrass); rate 0.2500 kg/ha)
1.0: CASOB preemergence herbicidal rating (CASOB (Sicklepod) [2]; rate 0.0156 kg/ha) | CASOB preemergence herbicidal rating (CASOB (Sicklepod) [2]; rate 0.0313 kg/ha) | Herbicidal rating SAGPY ([3]; 0.1250 kg/ha) | CASOB herbicidal rating (CASOB (Sicklepod) [5]; rate 0.0313 kg/ha)
0.0: Herbicidal rating SAGPY ([3]; 0.0313 kg/ha) | Herbicidal rating SAGPY ([3]; 0.0625 kg/ha) | CASOB herbicidal rating (CASOB (Sicklepod) [5]; rate 0.0156 kg/ha) | Herbicidal rating CYPIR (CYPIR (Rice Flatsedge); rate 0.0313 kg/ha)
8.3: ZEAMX preemergence herbicidal rating (ZEAMX (Corn, Field); rate 0.0625 kg/ha) | ECHCG preemergence herbicidal rating (ECHCG (Barnyardgrass); rate 0.0313 kg/ha)
6.0: GLXMAW preemergence herbicidal rating ([4]; rate 0.0313 kg/ha) | Herbicidal rating CYPIR (CYPIR (Rice Flatsedge); rate 0.2500 kg/ha)
3.0: CASOB preemergence herbicidal rating (CASOB (Sicklepod) [2]; rate 0.0625 kg/ha)
7.7: IPOHE preemergence herbicidal rating ([7]; rate 0.0313 kg/ha)
7.0: AMBEL herbicidal rating (AMBEL (Ragweed, Common); rate 0.1250 kg/ha) | TRZAWR preemergence herbicidal rating ([1]; rate 0.0313 kg/ha) | IPOHE herbicidal rating ([6]; rate 0.0313 kg/ha) | ZEAMX preemergence herbicidal rating (ZEAMX (Corn, Field); rate 0.0313 kg/ha) | IPOHE preemergence herbicidal rating ([7]; rate 0.0625 kg/ha)
5.0: IPOHE preemergence herbicidal rating ([7]; rate 0.0156 kg/ha)
6.3: GLXMAW preemergence herbicidal rating ([4]; rate 0.0625 kg/ha)
6.7: ZEAMX preemergence herbicidal rating (ZEAMX (Corn, Field); rate 0.0156 kg/ha)
3.5: AMBEL herbicidal rating (AMBEL (Ragweed, Common); rate 0.0313 kg/ha)
7.5: AMBEL herbicidal rating (AMBEL (Ragweed, Common); rate 0.0625 kg/ha) | TRZAWR preemergence herbicidal rating ([1]; rate 0.0625 kg/ha) | GALAP herbicidal rating (GALAP (Galium); rate 0.1250 kg/ha)
8.7: GLXMAW preemergence herbicidal rating ([4]; rate 0.1250 kg/ha) | ZEAMX preemergence herbicidal rating (ZEAMX (Corn, Field); rate 0.1250 kg/ha) | ZEAMX preemergence herbicidal rating (ZEAMX (Corn, Field); rate 0.2500 kg/ha) | ECHCG preemergence herbicidal rating (ECHCG (Barnyardgrass); rate 0.0625 kg/ha)
5.7: ECHCG preemergence herbicidal rating (ECHCG (Barnyardgrass); rate 0.0156 kg/ha)
5.3: CASOB preemergence herbicidal rating (CASOB (Sicklepod) [2]; rate 0.1250 kg/ha)
4.5: CASOB herbicidal rating (CASOB (Sicklepod) [5]; rate 0.1250 kg/ha) | GALAP herbicidal rating (GALAP (Galium); rate 0.0625 kg/ha)

Reference: patent US20020137929A1, “1 - (3-heterocyclylphenyl) isothiourea, -isourea, -guanidine and -amidine herbicidal agents” (Intellectual Property Department, BASF Aktiengesellschaft, priority 1998, published 2002)
